The source of these data is patent US7683168B2, “Compositions of novel opioid compounds and method of use thereof” (priority 2005, dated 2010).

In one data set the target is T1, κ opioid receptor (Cavia porcellus, UniProt P41144).
T1 construct: tissue Pel-Freeze Biological Inc. (Rogers, Ark.); host or cells: guinea pig cerebellum
Put plainly: radioligand binding, κ opioid receptor, guinea pig cerebellum. As to conditions: tritium-labeled U69593.

The next data set deals with mouse vas deferens. The experiment in a line: electrically stimulated mouse vas deferens (MVD) ED50. It is filed as cell-based. As to conditions: ED50, inhibition of electrically induced contractions.
In data set [1] the test system is seizure-like convulsions in mice. Put plainly: mouse seizure-like convulsions. It is filed as in vivo. The procedure, abridged: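 Male CD-1 mice (Charles River, Raleigh, N.C.) of 20-25 g were dosed and watched for one hour to detect seizure-like convulsions mediated by central delta receptors. An event was counted when clonic or tonic/clonic muscle movements involved the whole body, usually followed by brief catalepsy, judged by no attempt to withdraw front paws from a bar 2-3 inches above the floor.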

Another data set has as its target T2, μ opioid receptor (Rattus norvegicus, UniProt P33535).
T2 construct: tissue Pel-Freeze Biological Inc. (Rogers, Ark.); host or cells: rat whole brain
The experiment in a line: radioligand binding, μ opioid receptor, rat brain membranes. The conditions noted are these: cell marked (rat), tritium-labeled DAMGO.

Another data set addresses T3, δ opioid receptor (Rattus norvegicus, UniProt P33533).
T3 construct: tissue Pel-Freeze Biological Inc. (Rogers, Ark.); host or cells: rat whole brain
The experiment in a line: radioligand binding, δ opioid receptor, rat brain membranes. As to conditions: cell marked (rat), tritium-labeled Deltorphin II.

In another data set the test system is guinea pig ileum. The experiment in a line: electrically stimulated guinea pig ileum (GPI) ED50. Format: cell-based. As to conditions: Cavia porcellus; ED50, inhibition of electrically induced contractions. The protocol:
Further the compounds of formula (1) were evaluated for in vitro opioid receptor activity in various receptor systems, including mouse vas deferens (Mouse Vas Deferens ED50), and guinea pig ileum (Guinea Pig Ileum ED50). The assay procedures used for such determinations of receptor activity are set out below.
Intact ileums (about 3 cm length) were removed from guinea pig and suspended with 1 g of tension in a bath chamber as described for the vasa deferentia. The ileums were stimulated with electrical square-wave pulses of 0.1-Hz, 1 msec pulse duration at supramaximal voltage.
The ED50 values were extrapolated from curves showing the dose concentration plotted against the response (J. A. H. Lord, A. A. Waterfield, J. Hughes, H. W. Kosterlitz, Nature 267, 495, (1977)).

Data set [2] concerns tail-pinch antinociception in mice. As to conditions: in vivo; for mouse TP % MPE: iv, 10 mg/kg.
The next data set in a line: rat analgesia. Format: in vivo.

T1 sequence (P41144 whole entry): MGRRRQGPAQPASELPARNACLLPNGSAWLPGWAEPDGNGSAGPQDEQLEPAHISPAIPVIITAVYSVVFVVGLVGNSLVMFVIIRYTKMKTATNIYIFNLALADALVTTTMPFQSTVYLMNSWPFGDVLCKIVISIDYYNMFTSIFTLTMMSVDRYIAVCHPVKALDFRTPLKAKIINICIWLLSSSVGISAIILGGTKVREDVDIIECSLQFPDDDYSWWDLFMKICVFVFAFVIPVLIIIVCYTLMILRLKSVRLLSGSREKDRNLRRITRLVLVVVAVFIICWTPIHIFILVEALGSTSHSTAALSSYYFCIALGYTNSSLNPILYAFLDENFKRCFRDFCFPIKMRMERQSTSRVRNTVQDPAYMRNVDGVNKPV
T3 sequence (P33533 whole entry): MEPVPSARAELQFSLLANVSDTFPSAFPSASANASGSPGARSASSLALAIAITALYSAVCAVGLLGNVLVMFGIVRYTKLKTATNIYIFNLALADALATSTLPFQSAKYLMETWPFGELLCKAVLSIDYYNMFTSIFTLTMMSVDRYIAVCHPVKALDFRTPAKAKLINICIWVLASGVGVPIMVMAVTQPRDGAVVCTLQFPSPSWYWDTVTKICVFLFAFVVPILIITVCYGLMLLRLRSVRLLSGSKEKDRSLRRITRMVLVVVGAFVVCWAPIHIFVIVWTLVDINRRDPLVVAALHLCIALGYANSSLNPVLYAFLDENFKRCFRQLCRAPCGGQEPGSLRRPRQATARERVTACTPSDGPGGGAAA
T2 sequence (P33535 whole entry): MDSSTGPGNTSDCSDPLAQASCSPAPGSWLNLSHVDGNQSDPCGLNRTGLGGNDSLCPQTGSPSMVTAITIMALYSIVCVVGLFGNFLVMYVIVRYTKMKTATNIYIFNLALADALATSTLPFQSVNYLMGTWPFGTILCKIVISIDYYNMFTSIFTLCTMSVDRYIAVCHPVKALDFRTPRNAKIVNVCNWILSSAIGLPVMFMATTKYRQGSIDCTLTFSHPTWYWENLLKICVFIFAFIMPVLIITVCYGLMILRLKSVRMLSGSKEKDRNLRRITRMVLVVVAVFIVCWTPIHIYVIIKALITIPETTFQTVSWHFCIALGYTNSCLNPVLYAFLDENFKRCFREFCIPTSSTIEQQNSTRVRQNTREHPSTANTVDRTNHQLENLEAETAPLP

For `C=CCN1C[C@H](C)N([C@@H](c2cccc(O)c2)c2cccc(C(=O)N3CCCN(CCCC(=O)O)CC3)c2)C[C@H]1C`, the Ki (usually a dissociation constant, usually derived from enzyme kinetics or from competition with a known ligand) on κ opioid receptor stood at 16.3 nM; at μ opioid receptor it was 5.57 nM; on δ opioid receptor, 2.75 nM. Further, the EC50 (in general, the concentration needed to bring the measured effect to its halfway point) in the data set on mouse vas deferens is 2.2 nM; in the data set with guinea pig ileum, 186 nM. Also, the Seiz. in data set [1] (10 mg/kg IV) was 0% 10 mg/kg IV.
For the molecule `CCOC(=O)CCN1CCCN(C(=O)c2cccc([C@H](c3cccc(O)c3)N3C[C@@H](C)N(Cc4ccccc4)C[C@@H]3C)c2)CC1`, the Ki on κ opioid receptor is 2.98 nM; on μ opioid receptor, 0.75 nM; on δ opioid receptor, 1.2 nM. Further, the “mouse TP % MPE” value in data set [2] is 80% 10 mg/kg IV (42% MPE mouse TP). The EC50 was 1.5 nM with mouse vas deferens and 836 nM in the data set on guinea pig ileum. For the same molecule, the Seiz. in data set [1] (10 mg/kg IV) is 80% 10 mg/kg IV (42% MPE mouse TP).
Consider `C=CCN1C[C@H](C)N(C(c2ccc(C(=O)N3CCCN(CCCC(=O)OCC)CC3)cc2)c2cccc(O)c2)C[C@H]1C` (some centres unmarked), for which the Ki on κ opioid receptor is 1.2 nM; at μ opioid receptor, 2.6 nM; on δ opioid receptor, 1.9 nM. For the same molecule, the half-maximal effective concentration (EC50) with mouse vas deferens came out at 1.44 nM; in the data set on guinea pig ileum it was 526 nM. Further, the Seiz. in data set [1] (10 mg/kg IV) was found to be 0% 10 mg/kg IV.
Regarding `C=CCN1C[C@H](C)N([C@@H](c2cccc(O)c2)c2cccc(C(=O)N3CCCN(CCCCC(=O)OCC)CC3)c2)C[C@H]1C`, the Ki was 0.6 nM at κ opioid receptor, 1.25 nM on μ opioid receptor and 2.9 nM at δ opioid receptor. Besides, the EC50 stood at 43.7 nM in the data set with mouse vas deferens and 231 nM in the data set on guinea pig ileum. This molecule also showed a Seiz. in data set [1] (10 mg/kg IV) of 0% 10 mg/kg IV.
For `C[C@@H]1CN([C@@H](c2cccc(O)c2)c2cccc(C(=O)N3CCCN(CCC(=O)O)CC3)c2)[C@@H](C)CN1Cc1ccccc1`, the inhibition constant (Ki) on κ opioid receptor worked out at 3830 nM; at μ opioid receptor, 3.9 nM; on δ opioid receptor, 4 nM. Besides, the EC50 in the data set on mouse vas deferens amounted to 0.52 nM; in the data set on guinea pig ileum, 52.2 nM. Besides, the Seiz. in data set [1] (20 mg/kg IV) and in data set [1] (200 mg/kg PO) was 0% 200 mg/kg PO 0% 20 mg/kg IV throughout.
With `C=CCN1C[C@H](C)N([C@@H](c2cccc(O)c2)c2cccc(C(=O)N3CCCN(CCC(=O)OCC)CC3)c2)C[C@H]1C`, the Ki is 1.09 nM on κ opioid receptor, 0.55 nM on μ opioid receptor and 0.57 nM at δ opioid receptor. The EC50 came to 5.58 nM in the data set with mouse vas deferens and 112 nM in the data set on guinea pig ileum. The same molecule gave a Seiz. in data set [1] (10 mg/kg IV) of 30% 10 mg/kg IV.
On to `CN1CC[C@]23c4c5ccc(O)c4O[C@H]2[C@@H](O)C=C[C@H]3[C@H]1C5` [morphine, reference compound], for which, in data set [2] (mouse), the “maximum time of response in tail-pinch assay” value is 20 s.
On to `C=CCN1C[C@H](C)N([C@@H](c2cccc(O)c2)c2cccc(C(=O)N3CCCN(CCC(=O)O)CC3)c2)C[C@H]1C`, for which the inhibition constant Ki on κ opioid receptor was determined as 9.85 nM; at μ opioid receptor, 3.89 nM; on δ opioid receptor, 3.03 nM. Further, the values for the EC50 in the data set with mouse vas deferens and in the data set with guinea pig ileum were 5.39 nM and 117 nM, respectively. In data set [1] (10 mg/kg IV), this molecule returned a Seiz. of 0% 10 mg/kg IV.
Take `C=CCN1C[C@H](C)N(C(c2ccc(C(=O)N3CCCN(CCCC(=O)O)CC3)cc2)c2cccc(O)c2)C[C@H]1C` (some centres unmarked): the results for the Ki on κ opioid receptor, at μ opioid receptor and at δ opioid receptor were 29.2 nM, 16.1 nM and 3.94 nM, respectively. For the same molecule, the figures for the EC50 in the data set with mouse vas deferens and in the data set on guinea pig ileum were 0.95 nM and 439 nM, respectively. In addition, the Seiz. in data set [1] (10 mg/kg IV) and in data set [1] (100 mg/kg SC) was 0% 10 mg/kg IV 0% 100 mg/kg SC throughout.
On to `C=CCN1C[C@H](C)N(C(c2cccc(O)c2)c2cccc(C(=O)N3CCCN(C)CC3)c2)C[C@H]1C` (some centres unmarked), for which the values for the Ki on κ opioid receptor, at μ opioid receptor and on δ opioid receptor were 1.93 nM, 1.58 nM and 5.45 nM, respectively. For the same molecule, in data set [2], the “mouse TP % MPE” value is 0% 10 mg/kg IV (mouse TP- 54% MPE; no rat analg.). For the same molecule, the EC50 in the data set with mouse vas deferens was determined as 26.3 nM. The same molecule returned a Seiz. in data set [1] (10 mg/kg IV) of 0%. Besides, the rat analg. result in “rat analgesia” is “no rat analg”.
